In patent publication US6737383B1, “Herbicidal oxadiazolidines” (priority 1999, dated 2004):

Experiments:
[1] = tested on: pitted morningglory; assay: Test D pitted morningglory; assay type: in vivo, Ipomoea lacunosa; conditions: Preemergence, 0 to 100 scale
Outline: (§1)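 Visual injury ratings, 0 = no injury to 100 = complete control, taken 14 to 21 days after treatment. Test chemicals were in a surfactant-containing non-phytotoxic solvent; preemergence treatments went onto the sandy loam surface of seeded greenhouse pots within one day of sowing.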

[2] = tested on: guineagrass; assay: Test D guineagrass; assay type: in vivo, Panicum maximum; conditions: Preemergence, 0 to 100 scale
Outline: as §1

[3] = tested on: Johnson grass; assay: Test D Johnson grass; assay type: in vivo, Sorghum halepense; conditions: Preemergence, 0 to 100 scale
Outline: as §1

[4] = tested on: large crabgrass; assay: Test D large crabgrass; assay type: in vivo, Digitaria sanguinalis; conditions: Preemergence, 0 to 100 scale
Outline: as §1

[5] = tested on: itchgrass; assay: Test D itchgrass; assay type: in vivo, Rottboellia exaltata; conditions: Preemergence, 0 to 100 scale
Outline: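 Scoring used a 0–100 visual injury scale, with 0 meaning no effect and 100 complete control, assessed 14–21 days after application alongside untreated pots. Preemergence treatments went onto sandy loam surfaces of separately potted seeds within a day of sowing.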

[6] = tested on: goosegrass; assay: Test D goosegrass; assay type: in vivo, Eleusine indica; conditions: Preemergence, 0 to 100 scale
Outline: as §1

[7] = tested on: tall mallow; assay: Test D tall mallow; assay type: in vivo, Malva sylvestris; conditions: Preemergence, 0 to 100 scale
Outline: as §1

[8] = tested on: common pursiane; assay: Test D common purslane; assay type: in vivo, Portulaca oleracea; conditions: Preemergence, 0 to 100 scale
Outline: as §1

[9] = tested on: purple nutsedge; assay: Test D purple nutsedge; assay type: in vivo, Cyperus rotundus; conditions: Preemergence, 0 to 100 scale
Outline: as §1

[10] = tested on: bermuda-grass; assay: Test D bermudagrass; assay type: in vivo, Cynodon dactylon; conditions: Preemergence, 0 to 100 scale
Outline: as §1

[11] = tested on: common ragweed; assay: Test D common ragweed; assay type: in vivo, Ambrosia elatior; conditions: Preemergence, 0 to 100 scale
Outline: as §1

[12] = tested on: Alexandergrass; assay: Test D Alexandergrass; assay type: in vivo, Brachiaria plantaginea; conditions: Preemergence, 0 to 100 scale
Outline: as §1

[13] = tested on: surinam grass; assay: Test D surinam grass; assay type: in vivo, Brachiaria decumbens; conditions: Preemergence, 0 to 100 scale
Outline: as §1

[14] = tested on: dallisgrass; assay: Test D dallisgrass; assay type: in vivo, Paspalum dilatatum; conditions: Preemergence, 0 to 100 scale
Outline: as §1

[15] = tested on: Green foxtail; assay: Test D green foxtail; assay type: in vivo; conditions: Preemergence, 0 to 100 scale
Outline: as §1

[16] = tested on: Green foxtail; assay: Test D green foxtail; assay type: in vivo
Outline: as §1

[17] = Rate 64 g/ha, 0 no injury, 100 complete control
[18] = Rate 125 g/ha, 0 no injury, 100 complete control
[19] = Rate 64 g/ha, Preemergence; 0 to 100 scale, 0 no injury, 100 complete control
[20] = Rate 125 g/ha, Preemergence; 0 to 100 scale, 0 no injury, 100 complete control
[21] = Rate 250 g/ha; Preemergence; 0 to 100 scale
[22] = Rate 500 g/ha, Preemergence; 0 to 100 scale
[23] = Rate 16 g/ha, 0 no injury, 100 complete control
[24] = Rate 32 g/ha, 0 no injury, 100 complete control

CC(C)N(C(=O)n1oc(=O)n(C)c1=O)c1ccc(F)cc1 [Compound 138]
Plant response rating, P. morninglory [1, 17]: 65
Plant response rating, P. morninglory [1, 18]: 65
Plant response rating, P. morninglory ([1]; Rate 250 g/ha): 65
Plant response rating, P. morninglory ([1]; Rate 500 g/ha): 65
Plant response rating, Guineagrass [2, 17]: 100
Plant response rating, Guineagrass [2, 18]: 100
Plant response rating, Guineagrass ([2]; Rate 250 g/ha): 100
Plant response rating, Guineagrass ([2]; Rate 500 g/ha): 100
Plant response rating, Johnsongrass [3, 17]: 40
Plant response rating, Johnsongrass [3, 18]: 65
Plant response rating, Johnsongrass ([3]; Rate 250 g/ha): 100
Plant response rating, Johnsongrass ([3]; Rate 500 g/ha): 100
Plant response rating, Large crabgrass [4, 17]: 100
Plant response rating, Large crabgrass [4, 18]: 100
Plant response rating, Large crabgrass ([4]; Rate 250 g/ha): 100
Plant response rating, Large crabgrass ([4]; Rate 500 g/ha): 100
Plant response rating, Itchgrass [5, 17]: 30
Plant response rating, Itchgrass [5, 18]: 80
Plant response rating, Itchgrass ([5]; Rate 250 g/ha): 100
Plant response rating, Itchgrass ([5]; Rate 500 g/ha): 100
Plant response rating, Goosegrass [6, 17]: 98
Plant response rating, Goosegrass [6, 18]: 100
Plant response rating, Goosegrass ([6]; Rate 250 g/ha): 100
Plant response rating, Goosegrass ([6]; Rate 500 g/ha): 100
Tall Mallow plant response rating [7, 17]: 40
Tall Mallow plant response rating [7, 18]: 40
Plant response rating, Tall Mallow ([7]; Rate 250 g/ha): 70
Plant response rating, Tall Mallow ([7]; Rate 500 g/ha): 100
Plant response rating, C. purslane [8, 17]: 0
Plant response rating, C. purslane [8, 18]: 30
Plant response rating, C. purslane ([8]; Rate 250 g/ha): 100
Plant response rating, C. purslane ([8]; Rate 500 g/ha): 100
Purple nutsedge plant response rating [9, 17]: 30
Purple nutsedge plant response rating [9, 18]: 65
Plant response rating, Purple nutsedge ([9]; Rate 250 g/ha): 75
Plant response rating, Purple nutsedge ([9]; Rate 500 g/ha): 80
Plant response rating, Bermudagrass [10, 17]: 100
Plant response rating, Bermudagrass [10, 18]: 100
Plant response rating, Bermudagrass ([10]; Rate 250 g/ha): 100
Plant response rating, Bermudagrass ([10]; Rate 500 g/ha): 100
Plant response rating, C. ragweed [11, 17]: 10
Plant response rating, C. ragweed [11, 18]: 30
Plant response rating, C. ragweed ([11]; Rate 250 g/ha): 60
Plant response rating, C. ragweed ([11]; Rate 500 g/ha): 100
Plant response rating, Alexandergrass [12, 17]: 80
Plant response rating, Alexandergrass [12, 18]: 80
Plant response rating, Alexandergrass ([12]; Rate 250 g/ha): 98
Plant response rating, Alexandergrass ([12]; Rate 500 g/ha): 100
Surinam grass plant response rating [13, 17]: 40
Surinam grass plant response rating [13, 18]: 85
Plant response rating, Surinam grass ([13]; Rate 250 g/ha): 98
Plant response rating, Surinam grass ([13]; Rate 500 g/ha): 100
Plant response rating, Dallisgrass [14, 17]: 100
Plant response rating, Dallisgrass [14, 18]: 100
Plant response rating, Dallisgrass ([14]; Rate 250 g/ha): 100
Plant response rating, Dallisgrass ([14]; Rate 500 g/ha): 100
Plant response rating, Green foxtail ([15]; Rate 250 g/ha): 100
Plant response rating, Green foxtail ([15]; Rate 500 g/ha): 100
Green foxtail plant response rating [16, 19]: 100
Plant response rating, Green foxtail [16, 19]: 100
Green foxtail plant response rating [16, 20]: 100
Plant response rating, Green foxtail [16, 20]: 100
Plant response rating, Green foxtail [16, 21]: 100
Plant response rating, Green foxtail [16, 22]: 100

CC(C)N(C(=O)n1oc(=O)n(N(C)C)c1=O)c1ccc(F)cc1 [Compound 170]
Plant response rating, P. morninglory [1, 23]: 20
Plant response rating, P. morninglory [1, 24]: 20
Plant response rating, P. morninglory [1, 17]: 20
Plant response rating, P. morninglory [1, 18]: 40
Plant response rating, P. morninglory ([1]; Rate 250 g/ha): 65
Plant response rating, P. morninglory ([1]; Rate 500 g/ha): 85
Plant response rating, Guineagrass [2, 23]: 0
Plant response rating, Guineagrass [2, 24]: 85
Plant response rating, Guineagrass [2, 17]: 98
Plant response rating, Guineagrass [2, 18]: 100
Plant response rating, Guineagrass ([2]; Rate 250 g/ha): 100
Plant response rating, Guineagrass ([2]; Rate 500 g/ha): 100
Plant response rating, Johnsongrass [3, 23]: 0
Plant response rating, Johnsongrass [3, 24]: 0
Plant response rating, Johnsongrass [3, 17]: 0
Plant response rating, Johnsongrass [3, 18]: 75
Plant response rating, Johnsongrass ([3]; Rate 250 g/ha): 100
Plant response rating, Johnsongrass ([3]; Rate 500 g/ha): 95
Plant response rating, Large crabgrass [4, 23]: 30
Plant response rating, Large crabgrass [4, 24]: 85
Plant response rating, Large crabgrass [4, 17]: 100
Plant response rating, Large crabgrass [4, 18]: 100
Plant response rating, Large crabgrass ([4]; Rate 250 g/ha): 100
Plant response rating, Large crabgrass ([4]; Rate 500 g/ha): 100
Plant response rating, Itchgrass [5, 23]: 0
Plant response rating, Itchgrass [5, 24]: 0
Plant response rating, Itchgrass [5, 17]: 0
Plant response rating, Itchgrass [5, 18]: 30
Plant response rating, Itchgrass ([5]; Rate 250 g/ha): 45
Plant response rating, Itchgrass ([5]; Rate 500 g/ha): 50
Plant response rating, Goosegrass [6, 23]: 50
Plant response rating, Goosegrass [6, 24]: 65
Plant response rating, Goosegrass [6, 17]: 75
Plant response rating, Goosegrass [6, 18]: 75
Plant response rating, Goosegrass ([6]; Rate 250 g/ha): 98
Plant response rating, Goosegrass ([6]; Rate 500 g/ha): 100
Plant response rating, Tall Mallow [7, 23]: 30
Plant response rating, Tall Mallow [7, 24]: 30
Tall Mallow plant response rating [7, 17]: 30
Tall Mallow plant response rating [7, 18]: 30
Plant response rating, Tall Mallow ([7]; Rate 250 g/ha): 40
Plant response rating, Tall Mallow ([7]; Rate 500 g/ha): 45
Plant response rating, C. purslane [8, 23]: 0
Plant response rating, C. purslane [8, 24]: 0
Plant response rating, C. purslane [8, 17]: 0
Plant response rating, C. purslane [8, 18]: 0
Plant response rating, C. purslane ([8]; Rate 250 g/ha): 0
Plant response rating, C. purslane ([8]; Rate 500 g/ha): 10
Plant response rating, Purple nutsedge [9, 23]: 0
Plant response rating, Purple nutsedge [9, 24]: 0
Purple nutsedge plant response rating [9, 17]: 0
Purple nutsedge plant response rating [9, 18]: 0
Plant response rating, Purple nutsedge ([9]; Rate 250 g/ha): 65
Plant response rating, Purple nutsedge ([9]; Rate 500 g/ha): 65
Plant response rating, Bermudagrass [10, 23]: 80
Plant response rating, Bermudagrass [10, 24]: 90
Plant response rating, Bermudagrass [10, 17]: 100
Plant response rating, Bermudagrass [10, 18]: 100
Plant response rating, Bermudagrass ([10]; Rate 250 g/ha): 100
Plant response rating, Bermudagrass ([10]; Rate 500 g/ha): 100
Plant response rating, C. ragweed [11, 23]: 0
Plant response rating, C. ragweed [11, 24]: 0
Plant response rating, C. ragweed [11, 17]: 0
Plant response rating, C. ragweed [11, 18]: 0
Plant response rating, C. ragweed ([11]; Rate 250 g/ha): 40
Plant response rating, C. ragweed ([11]; Rate 500 g/ha): 45
Plant response rating, Alexandergrass [12, 23]: 20
Plant response rating, Alexandergrass [12, 24]: 20
Plant response rating, Alexandergrass [12, 17]: 30
Plant response rating, Alexandergrass [12, 18]: 85
Plant response rating, Alexandergrass ([12]; Rate 250 g/ha): 98
Plant response rating, Alexandergrass ([12]; Rate 500 g/ha): 100
Plant response rating, Surinam grass [13, 23]: 0
Plant response rating, Surinam grass [13, 24]: 0
Surinam grass plant response rating [13, 17]: 30
Surinam grass plant response rating [13, 18]: 75
Plant response rating, Surinam grass ([13]; Rate 250 g/ha): 100
Plant response rating, Surinam grass ([13]; Rate 500 g/ha): 100
Plant response rating, Dallisgrass [14, 23]: 0
Plant response rating, Dallisgrass [14, 24]: 0
Plant response rating, Dallisgrass [14, 17]: 85
Plant response rating, Dallisgrass [14, 18]: 85
Plant response rating, Dallisgrass ([14]; Rate 250 g/ha): 100
Plant response rating, Dallisgrass ([14]; Rate 500 g/ha): 100
Plant response rating, Green foxtail ([15]; Rate 250 g/ha): 100
Plant response rating, Green foxtail ([15]; Rate 500 g/ha): 100
Plant response rating, Green foxtail ([16]; Preemergence; Rate 16 g/ha; 0 to 100 scale, 0 no injury, 100 complete control): 65
Plant response rating, Green foxtail ([16]; Preemergence; Rate 32 g/ha; 0 to 100 scale, 0 no injury, 100 complete control): 75
Plant response rating, Green foxtail ([16]; Rate 16 g/ha; Preemergence; 0 to 100 scale, 0 no injury, 100 complete control): 65
Plant response rating, Green foxtail ([16]; Rate 32 g/ha; Preemergence; 0 to 100 scale, 0 no injury, 100 complete control): 100
Green foxtail plant response rating [16, 19]: 100
Plant response rating, Green foxtail [16, 19]: 100
Green foxtail plant response rating [16, 20]: 100
Plant response rating, Green foxtail [16, 20]: 100
Plant response rating, Green foxtail [16, 21]: 100
Plant response rating, Green foxtail [16, 22]: 100
